How the values were obtained:
Assay type in all cases: in vivo
Meloidogyne incognita = Meloidogyne incognita test; settings: 336 h, lettuce, after 14 days, read-out: nematicidal efficacy (formation of galls)
Protocol: Meloidogyne incognita Test Solvent: 125.0 parts by weight of acetone To produce a suitable active compound preparation, 1 part by weight of active compound is mixed with the stated amount of solvent and the concentrate is diluted with water to the desired concentration. Vessels are filled with sand, active compound solution, an egg/larvae suspension of the southern rootknot nematode (Meloidogyne incognita) and lettuce seeds. The lettuce seeds germinate and the plants develop. The galls develop on the roots. After 14 days, the nematicidal efficacy in % is determined by the formation of galls. 100% means that no galls were found; 0% means that the number of galls on the treated plants corresponds to the untreated control.

Myzus persicae [1] = assay: Myzus persicae spray test (Chinese cabbage leaf discs); settings: foliar, 120 h, 500 g/ha, after 5-6 days, read-out: efficacy
Protocol: Myzus persicae—Spray Test Solvent: 78 parts by weight of acetone • • 1.5 parts by weight of dimethylformamide Emulsifier: alkylaryl polyglycol ether To produce a suitable preparation of active compound, 1 part by weight of active compound is dissolved using the specified parts by weight of solvent and made up with water containing an emulsifier concentration of 1000 ppm until the desired concentration is attained. To produce further test concentrations, the formulation is diluted with emulsifier-containing water. Discs of Chinese cabbage leaves (Brassica pekinensis) infested by all stages of the green peach aphid (Myzus persicae) are sprayed with an active compound preparation of the desired concentration. After 5-6 days, the efficacy in % is determined. 100% means that all the aphids have been killed; 0% means that no aphids have been killed.

Myzus persicae [2] = assay: Myzus persicae oral test; settings: 120 h, 20 ppm, oral uptake, after 5 days, read-out: efficacy
Protocol: Myzus persicae—Oral Test Solvent: 100 parts by weight of acetone To produce a suitable preparation of active compound, 1 part by weight of active compound is dissolved using the specified parts by weight of solvent and made up with water until the desired concentration is attained. 50 μl of the active compound preparation are transferred into microtitre plates and made up to a final volume of 200 μl with 150 μl of IPL41 insect medium (33%+15% sugar). Subsequently, the plates are sealed with parafilm, which a mixed population of green peach aphids (Myzus persicae) within a second microtitre plate is able to puncture and imbibe the solution through it. After 5 days, the efficacy in % is determined. 100% means that all the aphids have been killed; 0% means that no aphids have been killed.

COc1ccccc1S(=O)(=O)NC(=O)c1cn(C)c(-c2cccc3ccccc23)n1 [Example 480]
pest or weed control at 20 ppm (Meloidogyne incognita): 90%

CC(C)Cc1ccc(S(=O)(=O)NC(=O)c2cn(C)c(-c3ccccc3Cl)n2)cc1 [Example 288]
pest or weed control at 20 ppm (Meloidogyne incognita): 90%

Cn1cc(C(=O)NS(=O)(=O)c2c(Cl)cccc2Cl)nc1-c1c(F)cc(F)cc1F [Example 4]
pest or weed control at 20 ppm (Meloidogyne incognita): 90%

CCc1[nH]c(-c2ccc(F)c(F)c2)nc1C(=O)NS(=O)(=O)c1ccccc1Cl [Example 471]
pest or weed control at 20 ppm (Meloidogyne incognita): 90%

CCOc1cccc(C(C)C)c1S(=O)(=O)NC(=O)c1cn(C)c(-c2c(F)cccc2F)n1 [Example 384]
pest or weed control at 20 ppm (Meloidogyne incognita): 90%

COc1ccccc1S(=O)(=O)NC(=O)c1cn(C)c(-c2ccc(F)c(F)c2)n1 [Example 546]
pest or weed control at 20 ppm (Meloidogyne incognita): 100%

CCSc1ccccc1-c1nc(C(=O)NS(=O)(=O)c2ccccc2C)cn1C [Example 475]
pest or weed control at 20 ppm (Meloidogyne incognita): 90%

Cc1ccccc1-c1nc(C(=O)NS(=O)(=O)c2ccccc2)cn1C [Example 50]
pest or weed control at 20 ppm (Meloidogyne incognita): 90%

Cn1cc(C(=O)NS(=O)(=O)c2c(C(F)(F)F)cccc2[Si](C)(C)C)nc1-c1c(F)cccc1F [Example 375]
pest or weed control at 20 ppm (Meloidogyne incognita): 90%

Cn1cc(C(=O)NS(=O)(=O)Nc2ccccc2)nc1-c1c(F)cccc1F [Example 507]
pest or weed control at 20 ppm (Meloidogyne incognita): 90%

Cn1cc(C(=O)NS(=O)(=O)c2ccccc2Cl)nc1-c1csc2ccccc12 [Example 522]
pest or weed control at 20 ppm (Meloidogyne incognita): 90%

Cn1cc(C(=O)NS(=O)(=O)c2ccccc2OC(C)(C)C)nc1-c1c(F)cccc1F [Example 376]
pest or weed control at 20 ppm (Meloidogyne incognita): 90%

COc1ccc(Cl)c(S(=O)(=O)NC(=O)c2nc(-c3cccc(C(C)C)c3)[nH]c2C)c1 [Example 621]
pest or weed control at 20 ppm (Meloidogyne incognita): 90%

COc1cccc(S(C)(=O)=O)c1S(=O)(=O)NC(=O)c1cn(C)c(-c2c(F)cccc2F)n1 [Example 382]
pest or weed control at 20 ppm (Meloidogyne incognita): 90%

Cc1[nH]c(-c2c(F)cccc2Cl)nc1C(=O)NS(=O)(=O)c1ccccc1Cl [Example 623]
pest or weed control at 20 ppm (Meloidogyne incognita): 100%

COc1ccc(Cl)c(S(=O)(=O)NC(=O)c2cc(-c3ncccc3Cl)n(-c3ccccc3Cl)n2)c1 [Example 457]
pest or weed control at 20 ppm (Meloidogyne incognita): 100%

Cn1cc(C(=O)NS(=O)(=O)N2CCOCC2)nc1-c1c(F)cccc1F [Example 505]
pest or weed control at 20 ppm (Meloidogyne incognita): 90%

COc1ccccc1NS(=O)(=O)NC(=O)c1cn(C)c(-c2c(F)cccc2F)n1 [Example 508]
pest or weed control at 20 ppm (Meloidogyne incognita): 90%

Cn1nc(-c2c(F)cccc2F)nc1C(=O)NS(=O)(=O)c1ccccc1Br [Example 408]
pest or weed control at 20 ppm (Meloidogyne incognita): 90%

COc1ccc(Cl)c(S(=O)(=O)NC(=O)c2nc(-c3c(F)cccc3Cl)[nH]c2C)c1 [Example 624]
pest or weed control at 20 ppm (Meloidogyne incognita): 90%

Cc1ccccc1S(=O)(=O)NC(=O)c1cc(-c2ccccc2Cl)n(-c2ncccc2Cl)n1 [Example 261]
pest or weed control at 20 ppm (Meloidogyne incognita): 90%

Cn1cc(C(=O)NS(=O)(=O)c2ccccc2C(C)(C)C)nc1-c1c(F)cccc1F [Example 360]
pest or weed control at 20 ppm (Meloidogyne incognita): 90%

Cn1cc(C(=O)NS(=O)(=O)c2ccccc2Cl)nc1-c1ccccc1C#N [Example 481]
pest or weed control at 20 ppm (Meloidogyne incognita): 90%

Cc1ccccc1S(=O)(=O)NC(=O)c1cn(C)c(-c2csc3ccccc23)n1 [Example 530]
pest or weed control at 20 ppm (Meloidogyne incognita): 90%

Cn1cc(C(=O)NS(=O)(=O)c2ccccc2Cl)nc1-c1cccc2c1OC(F)(F)O2 [Example 541]
pest or weed control at 20 ppm (Meloidogyne incognita): 100%

COc1ccc(F)c(S(=O)(=O)NC(=O)c2cn(C)c(-c3c(F)cccc3F)n2)c1 [Example 170]
pest or weed control at 500 g/ha (Myzus persicae [1]): 90% | pest or weed control at 20 ppm (Myzus persicae [2]): 100%

Cc1ccccc1S(=O)(=O)NC(=O)c1cn(C)c(-c2cccnc2Cl)n1 [Example 491]
pest or weed control at 500 g/ha (Myzus persicae [1]): 100% | pest or weed control at 20 ppm (Myzus persicae [2]): 100%

Cc1ccccc1-c1nc(C(=O)NS(=O)(=O)c2ccccc2Cl)cn1C [Example 97]
pest or weed control at 500 g/ha (Myzus persicae [1]): 100% | pest or weed control at 20 ppm (Myzus persicae [2]): 100%

Cc1ccccc1S(=O)(=O)NC(=O)c1cn(C)c(-c2c(F)cccc2Cl)n1 [Example 110]
pest or weed control at 500 g/ha (Myzus persicae [1]): 90% | pest or weed control at 20 ppm (Myzus persicae [2]): 100%

COc1ccccc1S(=O)(=O)NC(=O)c1cn(C)c(-c2cccnc2Cl)n1 [Example 492]
pest or weed control at 500 g/ha (Myzus persicae [1]): 100% | pest or weed control at 20 ppm (Myzus persicae [2]): 100%

COc1ccc(C)cc1S(=O)(=O)NC(=O)c1cn(C)c(-c2c(F)cccc2F)n1 [Example 390]
pest or weed control at 500 g/ha (Myzus persicae [1]): 100% | pest or weed control at 20 ppm (Myzus persicae [2]): 100%

Cn1cc(C(=O)NS(=O)(=O)c2ccccc2Cl)nc1-c1ccccc1F [Example 94]
pest or weed control at 500 g/ha (Myzus persicae [1]): 100% | pest or weed control at 20 ppm (Myzus persicae [2]): 100%

Cn1cc(C(=O)NS(=O)(=O)c2c(F)cccc2Br)nc1-c1c(F)cccc1F [Example 432]
pest or weed control at 500 g/ha (Myzus persicae [1]): 100% | pest or weed control at 20 ppm (Myzus persicae [2]): 100%

Cn1cc(C(=O)NS(=O)(=O)c2ccccc2Cl)nc1-c1ccccc1OC(F)(F)F [Example 459]
pest or weed control at 500 g/ha (Myzus persicae [1]): 90% | pest or weed control at 20 ppm (Myzus persicae [2]): 100%

CCc1[nH]c(-c2c(F)cccc2F)nc1C(=O)NS(=O)(=O)c1ccccc1Cl [Example 124]
pest or weed control at 500 g/ha (Myzus persicae [1]): 90% | pest or weed control at 20 ppm (Myzus persicae [2]): 100%

Cc1cc(C(=O)NS(=O)(=O)c2c(Cl)cccc2Cl)nn1-c1ncccc1Cl [Example 268]
pest or weed control at 500 g/ha (Myzus persicae [1]): 90% | pest or weed control at 20 ppm (Myzus persicae [2]): 100%

COc1ccc(F)cc1S(=O)(=O)NC(=O)c1cn(C)c(-c2cccc(Cl)c2Cl)n1 [Example 463]
pest or weed control at 500 g/ha (Myzus persicae [1]): 100% | pest or weed control at 20 ppm (Myzus persicae [2]): 100%

COc1ccc(OC)c(S(=O)(=O)NC(=O)c2cn(C)c(-c3ncccc3Cl)n2)c1 [Example 598]
pest or weed control at 500 g/ha (Myzus persicae [1]): 90% | pest or weed control at 20 ppm (Myzus persicae [2]): 100%

COc1ccc(Cl)c(S(=O)(=O)NC(=O)c2nc(-c3c(F)cccc3F)n(C)n2)c1 [Example 12]
pest or weed control at 500 g/ha (Myzus persicae [1]): 90% | pest or weed control at 20 ppm (Myzus persicae [2]): 90%

COCCS(=O)(=O)NC(=O)c1cn(C)c(-c2c(F)cccc2Cl)n1 [Example 150]
pest or weed control at 500 g/ha (Myzus persicae [1]): 90% | pest or weed control at 20 ppm (Myzus persicae [2]): 90%

Cn1cc(C(=O)NS(=O)(=O)c2ccccc2Cl)nc1-c1ccccc1S(C)(=O)=O [Example 483]
pest or weed control at 500 g/ha (Myzus persicae [1]): 90% | pest or weed control at 20 ppm (Myzus persicae [2]): 100%

CCn1cc(C(=O)NS(=O)(=O)c2ccccc2C)nc1-c1ccccc1Cl [Example 22]
pest or weed control at 500 g/ha (Myzus persicae [1]): 100% | pest or weed control at 20 ppm (Myzus persicae [2]): 100%

Cn1cc(C(=O)NS(=O)(=O)c2ccccc2Cl)nc1-c1ccccc1[N+](=O)[O-] [Example 524]
pest or weed control at 500 g/ha (Myzus persicae [1]): 90% | pest or weed control at 20 ppm (Myzus persicae [2]): 100%

COc1ccc(OC)c(S(=O)(=O)NC(=O)c2cn(C)c(-c3cccc(Cl)c3Cl)n2)c1 [Example 462]
pest or weed control at 500 g/ha (Myzus persicae [1]): 90% | pest or weed control at 20 ppm (Myzus persicae [2]): 90%

CCc1ccc(OC)c(S(=O)(=O)NC(=O)c2cn(C)c(-c3ccccc3Cl)n2)c1 [Example 278]
pest or weed control at 500 g/ha (Myzus persicae [1]): 100% | pest or weed control at 20 ppm (Myzus persicae [2]): 100%

COc1ccccc1S(=O)(=O)NC(=O)c1cn(C)c(-c2c(F)cc(F)cc2F)n1 [Example 7]
pest or weed control at 500 g/ha (Myzus persicae [1]): 90% | pest or weed control at 20 ppm (Myzus persicae [2]): 90%

COc1ccc(OC)c(S(=O)(=O)NC(=O)c2cn(C)c(-c3c(F)cccc3F)n2)c1 [Example 19]
pest or weed control at 500 g/ha (Myzus persicae [1]): 90% | pest or weed control at 20 ppm (Myzus persicae [2]): 100%

Cn1cc(C(=O)NS(=O)(=O)c2ccccc2F)nc1-c1c(F)cccc1F [Example 117]
pest or weed control at 500 g/ha (Myzus persicae [1]): 100% | pest or weed control at 20 ppm (Myzus persicae [2]): 90%

Cc1ccc(F)cc1S(=O)(=O)NC(=O)c1cn(C)c(-c2ncccc2F)n1 [Example 562]
pest or weed control at 500 g/ha (Myzus persicae [1]): 100% | pest or weed control at 20 ppm (Myzus persicae [2]): 100%

COc1ccc(Cl)c(S(=O)(=O)NC(=O)c2cn(C)c(-c3ccccc3F)n2)c1 [Example 95]
pest or weed control at 500 g/ha (Myzus persicae [1]): 90% | pest or weed control at 20 ppm (Myzus persicae [2]): 100%

COc1ccccc1S(=O)(=O)NC(=O)c1cn(C)c(-c2c(F)cccc2F)n1 [Example 116]
pest or weed control at 500 g/ha (Myzus persicae [1]): 100% | pest or weed control at 20 ppm (Myzus persicae [2]): 100%

CCn1cc(C(=O)NS(=O)(=O)c2ccccc2Cl)nc1-c1c(F)cccc1F [Example 571]
pest or weed control at 500 g/ha (Myzus persicae [1]): 100% | pest or weed control at 20 ppm (Myzus persicae [2]): 100%

Cn1cc(C(=O)NS(=O)(=O)c2c(F)cccc2F)nc1-c1ccccc1Cl [Example 53]
pest or weed control at 500 g/ha (Myzus persicae [1]): 100% | pest or weed control at 20 ppm (Myzus persicae [2]): 100%

CCc1[nH]c(-c2c(F)cccc2F)nc1C(=O)NS(=O)(=O)c1ccccc1C [Example 125]
pest or weed control at 500 g/ha (Myzus persicae [1]): 90% | pest or weed control at 20 ppm (Myzus persicae [2]): 100%

COc1ccc(Br)c(S(=O)(=O)NC(=O)c2cn(C)c(-c3ncccc3F)n2)c1 [Example 607]
pest or weed control at 500 g/ha (Myzus persicae [1]): 90% | pest or weed control at 20 ppm (Myzus persicae [2]): 100%

CCc1cccc(OS(C)(=O)=O)c1S(=O)(=O)NC(=O)c1cn(C)c(-c2c(F)cccc2F)n1 [Example 342]
pest or weed control at 500 g/ha (Myzus persicae [1]): 100% | pest or weed control at 20 ppm (Myzus persicae [2]): 100%

From US20200288710A1, “SUBSTITUTED SULPHONAMIDES FOR CONTROLLING ANIMAL PESTS” (BAYER CROPSCIENCE AKTIENGESELLSCHAFT, priority 2016, published 2020)
